Biological target: Human cGAS amino acids 155-522 (Homo sapiens (Human), UniProt Q8N884)
Experiment: cGAS biochemical activity assay (ATP remaining, Kinase-Glo Max luminescence)
Conditions: human cGAS 155-522, ATP remaining (Kinase-Glo Max); read-out: cGAS IC50

Sequence of Human cGAS amino acids 155-522 (Q8N884 157-522): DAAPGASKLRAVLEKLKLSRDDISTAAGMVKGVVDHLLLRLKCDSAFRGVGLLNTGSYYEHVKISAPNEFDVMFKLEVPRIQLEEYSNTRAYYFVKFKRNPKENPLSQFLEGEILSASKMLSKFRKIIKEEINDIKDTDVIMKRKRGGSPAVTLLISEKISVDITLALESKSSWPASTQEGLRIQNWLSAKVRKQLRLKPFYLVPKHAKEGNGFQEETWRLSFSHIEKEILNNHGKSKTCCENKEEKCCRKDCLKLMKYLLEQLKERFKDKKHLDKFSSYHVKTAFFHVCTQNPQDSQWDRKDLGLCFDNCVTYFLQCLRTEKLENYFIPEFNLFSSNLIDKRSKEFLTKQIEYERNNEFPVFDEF

IC50 | SMILES
< 20 µM | Cc1[nH]c2c(-c3ccccc3)c(C(F)(F)F)nn2c(=O)c1-c1nnc(C(=N)N)o1 [Compound D1074, 5-(5-methyl-7-oxo-3-phenyl-2-(trifluoromethyl)-4,7-dihydropyrazolo[1,5-a]pyrimidin-6-yl)-1,3,4-oxadiazole-2-carboximidamide]
< 20 µM | COc1cccc2oc(-c3c(C(=O)N[C@@H](C)CO)[nH]c4c(-c5ccccc5)c(C(F)(F)F)nn4c3=O)nc12 [Compound C1196, (S)-N-(1-hydroxypropan-2-yl)-6-(4-methoxybenzo[d]oxazol-2-yl)-7-oxo-3-phenyl-2-(trifluoromethyl)-4,7-dihydropyrazolo[1,5-a]pyrimidine-5-carboxamide]
20 to 250 µM | Cc1[nH]c2c(-c3ccccc3)c(C(F)(F)F)nn2c(=O)c1-c1nnc(-c2ccc([N+](=O)[O-])cc2)o1 [Compound D1061, 5-methyl-6-(5-(4-nitrophenyl)-1,3,4-oxadiazol-2-yl)-3-phenyl-2-(trifluoromethyl)pyrazolo[1,5-a]pyrimidin-7(4H)-one]
20 to 250 µM | COc1cccc2oc(-c3c(C)[nH]c4c(-c5ccc(C)cc5)c(C(F)(F)F)nn4c3=O)nc12 [Compound C1171]
> 250 µM | COc1ncccc1-c1nnc(-c2c(C)[nH]c3c(-c4ccccc4)c(C(F)(F)F)nn3c2=O)o1 [Compound D1064, 6-(5-(2-methoxypyridin-3-yl)-1,3,4-oxadiazol-2-yl)-5-methyl-3-phenyl-2-(trifluoromethyl)pyrazolo[1,5-a]pyrimidin-7(4H)-one]
20 to 250 µM | Cc1[nH]c2c(-c3ccccc3)c(C(F)(F)F)nn2c(=O)c1N1Cc2ccccc2C1=O [Compound C1214, 5-methyl-6-(1-oxoisoindolin-2-yl)-3-phenyl-2-(trifluoromethyl)pyrazolo[1,5-a]pyrimidin-7(4H)-one]
20 to 250 µM | Cc1[nH]c2c(-c3ccccc3)c(C(F)(F)F)nn2c(=O)c1-c1nnc(C2CCN(S(C)(=O)=O)CC2)o1 [Compound D1053, 5-methyl-6-(5-(1-(methylsulfonyl)piperidin-4-yl)-1,3,4-oxadiazol-2-yl)-3-phenyl-2-(trifluoromethyl)pyrazolo[1,5-a]pyrimidin-7(4H)-one]
< 20 µM | Cc1[nH]c2c(-c3ccccc3)c(C(F)(F)F)nn2c(=O)c1-c1nnc(N2CCCC(N)C2)o1 (stereo not shown) [Compound D1084, 6-(5-(3-aminopiperidin-1-yl)-1,3,4-oxadiazol-2-yl)-5-methyl-3-phenyl-2-(trifluoromethyl)pyrazolo[1,5-a]pyrimidin-7(4H)-one]
< 20 µM | Cc1[nH]c2c(-c3ccccc3)c(C(F)(F)F)nn2c(=O)c1-c1nnc(C2CCCC2)o1 [Compound D1003, 6-(5-cyclopentyl-1,3,4-oxadiazol-2-yl)-5-methyl-3-phenyl-2-(trifluoromethyl)pyrazolo[1,5-a]pyrimidin-7(4H)-one]
> 250 µM | COCCOc1nn2c(=O)c(-c3nc4c(OC)cccc4o3)c(C)[nH]c2c1-c1ccccc1 [Compound C1083, 6-(4-methoxybenzo[d]oxazol-2-yl)-2-(2-methoxyethoxy)-5-methyl-3-phenylpyrazolo[1,5-a]pyrimidin-7(4H)-one]
20 to 250 µM | COc1cccc2oc(-c3c(C4CCC(C(=O)O)CC4)[nH]c4c(-c5ccccc5)c(C(F)(F)F)nn4c3=O)nc12 (single isomer, unassigned) [Compound C1237, 4-(6-(4-methoxybenzo[d]oxazol-2-yl)-7-oxo-3-phenyl-2-(trifluoromethyl)-4,7-dihydropyrazolo[1,5-a]pyrimidin-5-yl)cyclohexane-1-carboxylic acid]
20 to 250 µM | COCCN(C)C(=O)c1[nH]c2c(-c3ccccc3)c(C(F)(F)F)nn2c(=O)c1-c1nc2c(OC)cccc2o1 [Compound C1179, 6-(4-methoxybenzo[d]oxazol-2-yl)-N-(2-methoxyethyl)-N-methyl-7-oxo-3-phenyl-2-(trifluoromethyl)-4,7-dihydropyrazolo[1,5-a]pyrimidine-5-carboxamide]
20 to 250 µM | COc1cccc2c1nc(-c1c(C)[nH]c3c(-c4ccccc4)c(C(F)(F)F)nn3c1=O)n2CCO [Compound C1201, 6-(1-(2-hydroxyethyl)-4-methoxy-1H-benzo[d]imidazol-2-yl)-5-methyl-3-phenyl-2-(trifluoromethyl)pyrazolo[1,5-a]pyrimidin-7(4H)-one]
20 to 250 µM | Cc1[nH]c2c(-c3ccccc3)c(C(F)(F)F)nn2c(=O)c1-c1nnc(N)o1 [Compound D1075, 6-(5-amino-1,3,4-oxadiazol-2-yl)-5-methyl-3-phenyl-2-(trifluoromethyl)pyrazolo[1,5-a]pyrimidin-7(4H)-one]
> 250 µM | Cc1[nH]c2c(-c3cccc(F)c3)c(C(F)(F)F)nn2c(=O)c1-c1nc2c(o1)CCCC2 [Compound C1035, 3-(3-fluorophenyl)-5-methyl-6-(4,5,6,7-tetrahydrobenzo[d]oxazol-2-yl)-2-(trifluoromethyl)pyrazolo[1,5-a]pyrimidin-7(4H)-one]
> 250 µM | Cc1[nH]c2c(C3CCCC3)c(C(F)(F)F)nn2c(=O)c1-c1nnc(C2CCCCC2)o1 [Compound D1017, 6-(5-cyclohexyl-1,3,4-oxadiazol-2-yl)-3-cyclopentyl-5-methyl-2-(trifluoromethyl)pyrazolo[1,5-a]pyrimidin-7(4H)-one]
20 to 250 µM | Cc1[nH]c2c(-c3ccccc3)c(C(F)(F)F)nn2c(=O)c1-c1nnc(N2CCCCC2CCN)o1 (stereo not shown) [Compound D1069, 6-(5-(2-(2-aminoethyl)piperidin-1-yl)-1,3,4-oxadiazol-2-yl)-5-methyl-3-phenyl-2-(trifluoromethyl)pyrazolo[1,5-a]pyrimidin-7(4H)-one]
20 to 250 µM | COc1cccc2c1nc(-c1c(C)[nH]c3c(-c4ccccc4)c(C(F)(F)F)nn3c1=O)n2CC(=O)O [Compound C1221, 2-(4-methoxy-2-(5-methyl-7-oxo-3-phenyl-2-(trifluoromethyl)-4,7-dihydropyrazolo[1,5-a]pyrimidin-6-yl)-1H-benzo[d]imidazol-1-yl)acetic acid]

The next lines start with the compound.

SMILES | IC50
COc1ccnc(NC(=O)c2c(C)[nH]c3c(-c4ccccc4)c(C)nn3c2=O)c1 [Compound A1105, N-(4-methoxypyridin-2-yl)-2,5-dimethyl-7-oxo-3-phenyl-4,7-dihydropyrazolo[1,5-a]pyrimidine-6-carboxamide] | < 20 µM
Cc1[nH]c2c(-c3ccccc3)c(C(F)(F)F)nn2c(=O)c1C(=O)NC1CCCCC1 [Compound A1010, N-cyclohexyl-5-methyl-7-oxo-3-phenyl-2-(trifluoromethyl)-4,7-dihydropyrazolo[1,5-a]pyrimidine-6-carboxamide] | 20 to 250 µM
Cc1[nH]c2c(-c3ccccc3)c(C(F)(F)F)nn2c(=O)c1C(=O)Nc1ccccn1 [Compound A1017, 5-methyl-7-oxo-3-phenyl-N-(pyridin-2-yl)-2-(trifluoromethyl)-4,7-dihydropyrazolo[1,5-a]pyrimidine-6-carboxamide] | < 20 µM
COc1cc(F)c(F)cc1NC(=O)c1c(C)[nH]c2c(-c3ccccc3)c(C(F)(F)F)nn2c1=O [Compound A1080, N-(4,5-difluoro-2-methoxyphenyl)-5-methyl-7-oxo-3-phenyl-2-(trifluoromethyl)-4,7-dihydropyrazolo[1,5-a]pyrimidine-6-carboxamide] | 20 to 250 µM
Cc1[nH]c2c(-c3ccccc3)c(C(F)(F)F)nn2c(=O)c1C(=O)Nc1cccc(Cl)c1 [Compound A1030, N-(3-chlorophenyl)-5-methyl-7-oxo-3-phenyl-2-(trifluoromethyl)-4,7-dihydropyrazolo[1,5-a]pyrimidine-6-carboxamide] | < 20 µM
COc1ncccc1NC(=O)c1c(C)[nH]c2c(-c3ccccc3)c(C(F)(F)F)nn2c1=O [Compound A1093, N-(2-methoxypyridin-3-yl)-5-methyl-7-oxo-3-phenyl-2-(trifluoromethyl)-4,7-dihydropyrazolo[1,5-a]pyrimidine-6-carboxamide] | 20 to 250 µM
CC(=O)Nc1ccccc1NC(=O)c1c(C)[nH]c2c(-c3ccccc3)c(C(F)(F)F)nn2c1=O [Compound A1021, N-(2-acetamidophenyl)-5-methyl-7-oxo-3-phenyl-2-(trifluoromethyl)-4,7-dihydropyrazolo[1,5-a]pyrimidine-6-carboxamide] | 20 to 250 µM
Cc1ccc(CN2CCN(C(=O)Cc3c(C)[nH]c4c(-c5ccccc5)c(C(F)(F)F)nn4c3=O)CC2)cc1 [Compound B1009, 5-methyl-6-(2-(4-(4-methylbenzyl)piperazin-1-yl)-2-oxoethyl)-3-phenyl-2-(trifluoromethyl)pyrazolo[1,5-a]pyrimidin-7(4H)-one] | > 250 µM
COc1c(Br)cccc1NC(=O)c1c(C)[nH]c2c(-c3ccccc3)c(C(F)(F)F)nn2c1=O [Compound A1130, N-(3-bromo-2-methoxyphenyl)-5-methyl-7-oxo-3-phenyl-2-(trifluoromethyl)-4,7-dihydropyrazolo[1,5-a]pyrimidine-6-carboxamide] | 20 to 250 µM
Cc1[nH]c2c(-c3ccccc3)c(C(F)(F)F)nn2c(=O)c1C(=O)N[C@H]1CCCC[C@H]1O [Compound A1092, N-((1S,2R)-2-hydroxycyclohexyl)-5-methyl-7-oxo-3-phenyl-2-(trifluoromethyl)-4,7-dihydropyrazolo[1,5-a]pyrimidine-6-carboxamide] | 20 to 250 µM
Cc1[nH]c2c(-c3ccccc3)c(C(F)(F)F)nn2c(=O)c1C(=O)NC1CCN(C)CC1 [Compound A1026, 5-methyl-N-(1-methylpiperidin-4-yl)-7-oxo-3-phenyl-2-(trifluoromethyl)-4,7-dihydropyrazolo[1,5-a]pyrimidine-6-carboxamide] | 20 to 250 µM
Cc1[nH]c2c(-c3ccccc3)c(C(F)(F)F)nn2c(=O)c1C(=O)Nc1ccon1 [Compound A1020, N-(isoxazol-3-yl)-5-methyl-7-oxo-3-phenyl-2-(trifluoromethyl)-4,7-dihydropyrazolo[1,5-a]pyrimidine-6-carboxamide] | 20 to 250 µM
COc1ccc(F)cc1NC(=O)c1c(C)[nH]c2c(-c3ccccc3)c(C(F)(F)F)nn2c1=O [Compound A1071, N-(5-fluoro-2-methoxyphenyl)-5-methyl-7-oxo-3-phenyl-2-(trifluoromethyl)-4,7-dihydropyrazolo[1,5-a]pyrimidine-6-carboxamide] | 20 to 250 µM

Source: patent US10738056B2 (Aduro BioTech, Inc., priority 2017, dated 2020)
